Source: patent US20260070899A1, “N-(2-(4-CYANOTHIAZOLIDIN-3-YL)-2-OXOETHYL)-QUINOLINE-4-CARBOXAMIDES” (AstraZeneca AB, priority 2022, published 2026)

Columns and labels:
hFAP = target: T1, hFAP (Homo sapiens, UniProt Q12884); assay: biochemical;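 further: substrate fluorescence read at room temperature in darkness, IC50 obtained by one-site dose-response fitting of percent inhibition against log concentration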
T1 sequence (Q12884 38-760): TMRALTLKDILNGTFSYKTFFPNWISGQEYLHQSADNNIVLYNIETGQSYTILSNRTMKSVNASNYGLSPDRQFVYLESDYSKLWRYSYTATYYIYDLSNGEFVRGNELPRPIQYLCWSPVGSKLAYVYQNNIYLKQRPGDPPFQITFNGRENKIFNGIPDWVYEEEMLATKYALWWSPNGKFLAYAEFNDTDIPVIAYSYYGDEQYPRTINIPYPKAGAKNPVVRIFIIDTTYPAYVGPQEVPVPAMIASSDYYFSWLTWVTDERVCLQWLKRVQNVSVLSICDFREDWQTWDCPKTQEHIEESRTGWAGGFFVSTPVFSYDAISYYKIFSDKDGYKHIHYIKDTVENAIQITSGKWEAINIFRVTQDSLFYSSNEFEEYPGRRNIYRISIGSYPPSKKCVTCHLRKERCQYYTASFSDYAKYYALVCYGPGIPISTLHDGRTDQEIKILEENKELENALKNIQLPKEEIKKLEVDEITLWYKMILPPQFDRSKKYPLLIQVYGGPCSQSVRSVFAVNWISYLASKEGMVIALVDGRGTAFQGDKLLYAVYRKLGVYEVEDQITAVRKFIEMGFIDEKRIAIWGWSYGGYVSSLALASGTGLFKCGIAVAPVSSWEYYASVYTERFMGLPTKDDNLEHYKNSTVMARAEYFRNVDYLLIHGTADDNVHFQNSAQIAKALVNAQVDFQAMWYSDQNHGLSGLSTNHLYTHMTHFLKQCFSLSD
Method: 384 low volume black plates (Greiner #784076) were used. 4 μL, 0.48 nM enzyme solution (100 mM Tris HCl, 100 mM NaCl, 0.05% Chaps, pH 7.4) was added to 40 nL compounds (in DMSO) at 10 CR, 3 fold dilution series from 50 μM FAC. Plates were incubated for 15 min at rt in dark. 4 μL, 40 μM substrate solution (100 mM Tris HCl, 100 mM NaCl, 0.05% Chaps, pH 7.4) was added to each well. Plates were centrifuged at 1000 rpm and incubated for 30 min at rt in dark. The plates were read on a PHERAstar® reader with excitation 340 nm and emission 460 nm. Data were analyzed in Genedata Screener®. IC50 values were determined by plotting % inhibition versus log compound concentration and using a one site dose response model.

FAP Mouse Plasma = target: T2, FAP Mouse Plasma (Mus musculus, UniProt P97321); assay: FAP plasma inhibition assay, mouse plasma; assay type: biochemical; details: mouse plasma dilution 1:67, Ala-Pro-AMC 75 μM; n = 1
T2 construct: Plasma (anticoagulant K2EDTA) was used as the enzyme source; tissue AZ AST Biobank; host or cells: mouse plasma (K2EDTA)
T2 sequence (P97321 24-761 limits assumed): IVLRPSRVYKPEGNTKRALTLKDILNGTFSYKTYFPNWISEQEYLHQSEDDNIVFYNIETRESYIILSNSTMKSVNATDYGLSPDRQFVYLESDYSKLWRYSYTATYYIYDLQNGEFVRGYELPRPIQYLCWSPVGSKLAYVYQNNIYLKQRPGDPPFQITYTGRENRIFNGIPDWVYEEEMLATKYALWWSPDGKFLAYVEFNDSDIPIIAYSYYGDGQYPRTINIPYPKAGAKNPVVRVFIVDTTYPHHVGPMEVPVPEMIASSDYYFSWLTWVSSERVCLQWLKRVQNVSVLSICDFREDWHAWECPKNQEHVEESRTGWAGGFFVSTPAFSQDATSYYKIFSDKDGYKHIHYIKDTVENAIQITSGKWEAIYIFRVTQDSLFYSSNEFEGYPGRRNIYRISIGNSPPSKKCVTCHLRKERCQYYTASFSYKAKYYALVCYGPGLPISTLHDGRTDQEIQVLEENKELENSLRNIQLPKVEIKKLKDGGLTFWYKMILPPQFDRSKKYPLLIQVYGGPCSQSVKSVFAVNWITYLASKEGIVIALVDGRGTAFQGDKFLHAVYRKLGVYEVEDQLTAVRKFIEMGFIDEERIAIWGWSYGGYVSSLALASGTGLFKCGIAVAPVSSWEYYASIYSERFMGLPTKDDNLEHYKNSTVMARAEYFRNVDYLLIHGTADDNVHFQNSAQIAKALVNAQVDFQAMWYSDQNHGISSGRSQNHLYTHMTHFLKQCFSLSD
Method: (§1) This assay was adapted from the method described in Example 89 for detection of FAP target engagement enzyme activity in plasma. Plasma (anticoagulant K2EDTA) was used as the enzyme source: Human plasma (Pooled from AZ Biobank) and Mouse plasma (AZ AST Biobank) and Cynomolgus plasma (BioIVT, #NHP00PLK2FNN, lot CYN222895). 384-Well black fluotrack PS plates (Greiner 781076) were used. 20 μL diluted plasma (Cynomolgus and Human plasma dilution 1:40, Mouse plasma dilution 1:67) in buffer (PBS, 0.1% BSA) was added to 0.6 μL compounds (in DMSO). Compounds were tested using 10 CR, 3 fold dilution series from 500 nM FAC. Two replicates for each assay point were run on the same plate. A fluorescence blank read was taken before substrate addition. Substrate, Ala-Pro-AMC (ARI-3144) stock solution (20 mM in DMSO) was diluted in buffer (PBS, 0.1% BSA) to 150 μM concentration and 20 μL added giving 75 μM FAC. Plates were incubated for 40 min at rt in the dark. The plates were read on a Beckman Paradigm® reader with excitation 360 nm and emission 465 nm. Data were analyzed in Excel (IDBS XLfit Add-In) using a one site dose response model (4-parameter logistic fit).

FAP Human Plasma = target: T3, FAP Human Plasma (Homo sapiens, UniProt Q12884); assay: FAP plasma inhibition assay, human plasma; assay type: biochemical; details: human plasma dilution 1:40, Ala-Pro-AMC 75 μM; n = 1
T3 construct: Plasma (anticoagulant K2EDTA) was used as the enzyme source; tissue AZ Biobank; host or cells: pooled human plasma (K2EDTA)
T3 sequence (Q12884 24-760 limits assumed): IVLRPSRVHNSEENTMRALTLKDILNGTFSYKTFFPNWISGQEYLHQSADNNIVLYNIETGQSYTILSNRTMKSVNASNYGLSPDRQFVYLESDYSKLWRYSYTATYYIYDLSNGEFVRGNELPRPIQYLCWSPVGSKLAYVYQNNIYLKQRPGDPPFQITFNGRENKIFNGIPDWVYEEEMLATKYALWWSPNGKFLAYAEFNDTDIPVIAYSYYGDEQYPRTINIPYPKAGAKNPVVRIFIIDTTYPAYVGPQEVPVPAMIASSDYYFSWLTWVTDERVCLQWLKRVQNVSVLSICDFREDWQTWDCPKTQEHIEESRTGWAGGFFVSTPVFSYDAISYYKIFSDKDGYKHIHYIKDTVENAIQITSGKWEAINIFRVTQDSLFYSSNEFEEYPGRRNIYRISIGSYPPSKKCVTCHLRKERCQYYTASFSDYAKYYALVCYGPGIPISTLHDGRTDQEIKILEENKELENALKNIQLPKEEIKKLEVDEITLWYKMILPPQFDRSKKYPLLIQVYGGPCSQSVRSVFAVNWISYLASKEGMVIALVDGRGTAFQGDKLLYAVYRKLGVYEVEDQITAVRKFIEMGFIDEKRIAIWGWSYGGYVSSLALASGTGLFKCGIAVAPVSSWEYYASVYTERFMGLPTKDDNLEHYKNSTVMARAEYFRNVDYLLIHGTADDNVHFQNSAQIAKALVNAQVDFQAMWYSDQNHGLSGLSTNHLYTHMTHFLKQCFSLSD
Method: as §1

Structure (SMILES) | IC50 (hFAP) | IC50 (FAP Mouse Plasma) | IC50 (FAP Human Plasma)
N#C[C@@H]1CSCN1C(=O)CNC(=O)c1ccnc2ccc(C3CCCCO3)cc12 (mixture of isomers) [Example 32, N-(2-((R)-4-Cyanothiazolidin-3-yl)-2-oxoethyl)-6-((RS)-tetrahydro-2H-pyran-2-yl)quinoline-4-carboxamide] | 0.63 nM | 1 nM | 0.5 nM
CO[C@H]1CC[C@H](c2ccc3nccc(C(=O)NCC(=O)N4CSC[C@H]4C#N)c3c2)CC1 (single isomer, unassigned) [Example 78, N-(2-((R)-4-Cyanothiazolidin-3-yl)-2-oxoethyl)-6-((1r,4R*)-4-methoxycyclohexyl)quinoline-4-carboxamide] |  | 0.2 nM | 0.1 nM
CC(C)(F)COc1ccc2nccc(C(=O)NCC(=O)N3CSC[C@H]3C#N)c2c1 [Example 3, (R)—N-(2-(4-Cyanothiazolidin-3-yl)-2-oxoethyl)-6-(2-fluoro-2-methylpropoxy)quinoline-4-carboxamide] |  | 0.5 nM | 0.3 nM
N#C[C@@H]1CSCN1C(=O)CNC(=O)c1ccnc2ccc(C3(O)CCOCC3)cc12 [Example 15, (R)—N-(2-(4-Cyanothiazolidin-3-yl)-2-oxoethyl)-6-(4-hydroxy-tetrahydro-2H-pyran-4-yl)quinoline-4-carboxamide] | 0.45 nM | 0.5 nM | 0.3 nM
CC(C)(O)c1ccc2nccc(C(=O)NCC(=O)N3CSC[C@H]3C#N)c2c1 [Example 16, (R)—N-(2-(4-Cyanothiazolidin-3-yl)-2-oxoethyl)-6-(2-hydroxypropan-2-yl)quinoline-4-carboxamide] | 0.6 nM | 0.9 nM | 0.9 nM
COC(C)(C)c1ccc2nccc(C(=O)NCC(=O)N3CSC[C@H]3C#N)c2c1 [Example 18, (R)—N-(2-(4-Cyanothiazolidin-3-yl)-2-oxoethyl)-6-(2-methoxypropan-2-yl)quinoline-4-carboxamide] | 0.81 nM | 2.1 nM | 1.5 nM
N#C[C@@H]1CSCN1C(=O)CNC(=O)c1ccnc2ccc(C3CCOCC3)cc12 [Example 20, (R)—N-(2-(4-Cyanothiazolidin-3-yl)-2-oxoethyl)-6-(tetrahydro-2H-pyran-4-yl)quinoline-4-carboxamide] | 0.23 nM | 0.5 nM | 0.3 nM
CCOC1(c2ccc3nccc(C(=O)NCC(=O)N4CSC[C@H]4C#N)c3c2)CCOCC1 [Example 23, (R)—N-(2-(4-Cyanothiazolidin-3-yl)-2-oxoethyl)-6-(4-ethoxytetrahydro-2H-pyran-4-yl)quinoline-4-carboxamide] | 0.71 nM | 0.7 nM | 0.5 nM
N#C[C@@H]1CSCN1C(=O)CNC(=O)c1ccnc2ccc(C3(C#N)CC3)cc12 [Example 70, (R)-6-(1-Cyanocyclopropyl)-N-(2-(4-cyanothiazolidin-3-yl)-2-oxoethyl)quinoline-4-carboxamide] | 0.43 nM | 0.7 nM | 0.7 nM
